Data on 2 compounds can be found in patent US20070010543A1, “Compositions and methods for treating gastrointestinal hypomotility and associated disorders” (Dynogen Pharmaceuticals, Inc., priority 2005, published 2007).

The test system of this test is guinea-pig distal colon. Put plainly: Fecal pellet propulsion velocity assay, guinea pig ex vivo colon preparation.

Values joined by “and” are separate entries in the source; they are usually repeats but may differ in a detail not shown here. Equal entries are not always repeated.

In the case of `O=C(N[C@H]1CN2CCC1CC2)c1c[nH]c2ccsc2c1=O` [DDP733, (R)-N-1-azabicyclo[2.2.2]oct-3-yl-4,7-dihydro-7-oxothieno[3,2-b]pyridine-6-carboxamide], the “effect on morphine-induced decrease in motility” value (in words, summary of Table II) is “diminished”.

Consider `CN1CC[C@]23c4c5ccc(O)c4O[C@H]2[C@@H](O)C=C[C@H]3[C@H]1C5` [Morphine], for which the Motility % control (Morphine 0.10 μM in bath, single preparations) is 72 % control and 57 % control and 73 % control and 78 % control. For the same compound, the effect on motility entry (in words, summary of Table II) is “decrease in motility”.
